We go through one compound from patent publication US8530507B2, “Use of levo-ornidazole in the preparation of anti-anaerobic bacteria infection drugs” (priority 2005, dated 2013).

One series relates to Beagle dogs. The following applies: dog, in vivo, iv, 200 mg/kg. From the text:
2. Toxicity Test in Beagle Dogs (Non-Rodent) After Intravenous Administration of L-ornidazole for Two Weeks
Beagle dogs, 4 dogs in each group with half females and half males, were divided into L-, D-, and racemic ornidazole groups.

Series [1] can be described thus: In vivo pharmacokinetics in Beagle dogs. On the procedure:
The clinical dose of ornidazole is 500 mg for human. By calculating, based on body surface area, the pharmacokinetic experimental dose in Beagle dogs was 13 mg/kg in vivo. Six adult beagle dogs (half males and half females, body weight of 9˜11.5 kg) were randomly divided into three groups. According to crossover design, intravenous injection of L-, D-, and racemic ornidazole were administered in turn to each dog every other week (with one week washout period in between). 2 ml of blood was collected from the vein located at the forelimb of the dogs before drug administration and 0.083, 0.5, 1.0, 2.0, 4.0, 6.0, 8.0, 12.0, 16.0, 24.0 hours after drug administration, which was then placed in the heparinized tube, followed by centrifugation to obtain the plasma. Plasma concentration of drug was determined by HPLC. Pharmacokinetics parameters were estimated using the non-compartmental models. The corresponding pharmacokinetics parameters were obtained by BAPP2.0 using the data of plasma concentration of blood with time obtained above.

Series [2] deals with mice. Kind of series: Effects on spontaneous activities in mice. It counts as in vivo. The following applies: for spontaneous activity compared with the vehicle control group: recorded at 0.5, 1, 2, 3 and 4 hours. On the procedure: Chlorpromazine was administered at dose of […] in the positive control group, and the same volume of propylene glycol containing 0.9% sodium chloride injection was administered in the vehicle control group. Spontaneous activity was recorded at 0.5, 1, 2, 3 and 4 hours after drug administration. The injection volume was 0.2 ml/10 g and the administration rate was 0.2 ml/10 sec.

Series [3] deals with mice. Briefly: Hypnotic effect of intravenous injection in mice (righting reflex). Type of series: in vivo. The following applies: mice, within 30 minutes. On the procedure:
White mice, half males and half females, fasted for eight hours. The disappearance of righting reflex in mice was observed. The number of animals who lost their righting reflex was recorded in 30 minutes after drug administration.

In series [4] the test system is mice. Briefly: Effect on the coordination of balancing in mice. It counts as in vivo. The following applies: intravenous injection. On the procedure: Experiments were conducted in 9 administration groups, L-, D- and racemic ornidazole were administered to them at doses of 40, 80 and 160 mg/kg. Positive control group received chlorpromazine at a dose of 3 mg/kg.

In series [5] the test system is mice. Kind of series: Effect on the hypnotic effect induced by sodium thiopental in mice. Conditions: 40 mg/kg sodium thiopental i.p. 30 minutes later.
Method: The same volume of 0.9% sodium chloride injection containing propylene glycol was administered in the vehicle control group. 30 minute after drug administration, 40 mg/kg of sodium thiopental was administered to mice by intraperitoneal injection. The time for the loss of righting reflex and the time for the recovery were recorded. The injection volume was 0.2 ml/10 g, the administration rate was 0.2 ml/10 sec.
Where [6] appears, read: beagle dogs, individual intravenous dose 13 mg/kg, plasma.

Each structure is given as a SMILES string.

Turning to `Cc1ncc([N+](=O)[O-])n1C[C@@H](O)CCl` [D-ornidazole], in the series on Beagle dogs, the “food intake and body weight” value was “significantly inhibited”; the “histological examination of organs” value is recorded as “significant pathological changes were not observed”; the “manifestations (toxicity and side effects)” value was “drooling, vomiting, myasthenia of limbs, astasia, hyperspasmia”; the “number of Purkinje cells in cerebellum (histological examination)” value is on record as “significantly reduced”. For the same compound, in series [1] (setting [6]), the “AUC0-t (area under curve)” value came out at 66570 ± 10510 ng·h/mL, the “Cl (clearance)” value is 1.59 ± 0.28 L/h, the “MRT (mean retention time of drugs)” value was found to be 8.74 ± 3.30 h and the “Vβ (elimination volume of distribution)” value amounted to 13.59 ± 4.99 L. Moreover, the “in vivo transformation of enantiomers between L- and D-ornidazole” value in series [1] (dog, in vivo, iv) is given as “not occurred”. The “t1/2 (half life)” value in series [1] (dog, in vivo, iv, 13 mg/kg) is 6.06 ± 2.29 h. Further, in the series on mice [2] (40 mg/kg intravenous), the “recovery of spontaneous activity” value is “gradually become normal after 3 hours”; the “spontaneous activity compared with the vehicle control group” value was “reduced significantly at 0.5, 1 and 2 hours”. Moreover, in the series with mice [2] (80 mg/kg intravenous), the “recovery of spontaneous activity” value is recorded as “not recovered in 4 hours”; the “spontaneous activity compared with the vehicle control group” value was “reduced significantly at 0.5, 1, 2, 3 and 4 hours”. In the series with mice [2] (160 mg/kg intravenous), the “recovery of spontaneous activity” value was “not recovered in 4 hours”; the “spontaneous activity compared with the vehicle control group” value was “reduced significantly at 0.5, 1, 2, 3 and 4 hours”. Besides, in the series with mice [3] (individual dose of 160 mg/kg intravenous), the “number of mice with loss in righting reflex” value is given as 10 mice. Moreover, the “loss in righting reflex” value in the series on mice [3] (individual dose of 40 or 80 mg/kg intravenous) was “No loss in righting reflex”. The “effect on the coordination and balance (number of falling animals)” value in the series on mice [4] (160 mg/kg) was “significant effect”. The “effect on the coordination and balance, compared with the vehicle control group” value in the series on mice [4] (doses of 40 and 80 mg/kg) is given as “no significant effect”. Further, in the series with mice [5] (40 mg/kg intravenous), the “duration of sleeping induced by sodium thiopental, compared with the vehicle control group” value is “significantly extended” and the “sleep latency induced by sodium thiopental, compared with the vehicle control group” value is recorded as “significantly reduced”. In the series on mice [5] (80 mg/kg intravenous), the “duration of sleeping induced by sodium thiopental, compared with the vehicle control group” value is recorded as “significantly extended” and the “sleep latency induced by sodium thiopental, compared with the vehicle control group” value is recorded as “significantly reduced”.
